Experimental data reported in patent US12059422B2 (MEI Pharma, Inc., priority 2011, dated 2024).

Legend:
Assay type in all cases: biochemical
[1] = molecular target: T1, PI3K beta (Homo sapiens, UniProt P42338); experiment: Luciferase-based luminescence assay (ADP Glo), PI3K beta enzymatic activity; conditions: for IC50: inhibition of enzymatic activity, ADP Glo, 25 μM ATP, read-out: IC50 p110β; for α/β ratio: ratio of enzymatic IC50 values, Table 1
T1 construct: purchased Millipore, Billerica, MA, USA
Protocol: (§1) PI3K catalyzes the conversion of phosphatidylinositol-4,5-bisphosphate (PIP2) and ATP to phosphatidylinositol-3,4,5-trisphosphate (PIP3) and ADP. For all assays, the reaction buffer comprised 50 mM HEPES, pH 7.5, 3 mM MgCl2, 1 mM EGTA, 100 mM NaCl, 0.03% CHAPS and 2 mM DTT. Compounds for testing were dissolved and serially diluted in 100% DMSO (total of 10 concentrations), then diluted 1:25 in reaction buffer.
PI3K beta and gamma enzymatic activity was determined by measuring the amount of ADP produced following the kinase reaction using a luciferase-based luminescence assay (ADP Glo®, Promega Corp., Madison, WI, USA). PI3K enzyme solutions were prepared by diluting PI3K beta (Millipore, Billerica, MA, USA) or PI3K gamma (Invitrogen Corp., Carlsbad, CA, USA) in reaction buffer, to 4× the final assay concentration (final concentrations of enzymes were 4.8 nM and 7.6 nM for PI3K beta and PI3K gamma respectively). A substrate solution was prepared by mixing PIP2 and ATP in reaction buffer at 2× the final assay concentration (final concentrations were 50 μM and 25 μM for PIP2 and ATP respectively). 2.5 μL each of the compound and kinase mixtures were added to individual wells of white low volume 384-well assay plates and mixed by shaking. The reactions were started by adding 5 μL of substrate mixture per well and shaking. The assay plates were covered and reactions were allowed to proceed for 1 hour. Then, 5 μL of reaction mix was transferred to another white low volume 384-well plate, and 5 μL of ADP-Glo™ reagent was added. The plates were briefly centrifuged and incubated for 40 minutes, after which 10 μL of kinase detection buffer was added. The plates then were centrifuged briefly, shaken slowly and equilibrated at room temperature for 30 minutes, after which luminescence was measured using a FlexStation plate reader (Molecular Devices, Sunnyvale, CA, USA). IC50 values were determined by curve fitting using Graphpad Prism software (Graphpad Software, La Jolla, CA, USA).

[2] = molecular target: T2, PI3K delta (Homo sapiens, UniProt O00329); experiment: Luciferase-based luminescence assay (KinaseGlo), PI3K delta enzymatic activity; conditions: for IC50: inhibition of enzymatic activity, KinaseGlo, 25 μM ATP, read-out: IC50 p110δ; for α/δ ratio: ratio of enzymatic IC50 against PI3Kα over IC50 against PI3Kδ; for β/δ ratio / γ/δ ratio: ratio of enzymatic IC50 values, Table 1
T2 construct: purchased Millipore, Billerica, MA, USA
Protocol: as §1
PI3K alpha and PI3K delta enzymatic activity was determined by measuring the amount of ATP consumed following the kinase reaction using a luciferase-based luminescence assay (KinaseGlo®, Promega Corp., Madison, WI, USA). PI3K enzyme solutions were prepared by diluting PI3K alpha (Invitrogen Corp., Carlsbad, CA, USA) or PI3K delta (Millipore, Billerica, MA, USA) in reaction buffer, to 4× the final assay concentration (final concentrations of enzymes were 1.65 nM and 6.86 nM for PI3K alpha and PI3K delta, respectively). A substrate solution was prepared by mixing PIP2 and ATP in reaction buffer at 2× the final assay concentration (final concentrations were 50 μM and 25 μM for PIP2 and ATP respectively). 2.5 μL each of the compound and kinase mixtures were added to individual wells of white low volume 384-well assay plates and mixed by shaking. The reactions were started by adding 5 μL of substrate mixture per well and shaking. The assay plates were covered and reactions were allowed to proceed for 1 hour (PI3K alpha) or 2 hours (PI3K delta), after which 10 μL of Kinase Glo® reagent was added. The plates were briefly centrifuged and incubated for 10 minutes, after which luminescence was measured using a FlexStation plate reader (Molecular Devices, Sunnyvale, CA, USA). IC50 values were determined by curve fitting using Graphpad Prism software (Graphpad Software, La Jolla, CA, USA).

[3] = molecular target: mTOR (Homo sapiens, UniProt P42345); experiment: mTOR inhibition (Table 1); conditions: Table 1, no method described

T1 sequence (P42338 whole entry, species assumed): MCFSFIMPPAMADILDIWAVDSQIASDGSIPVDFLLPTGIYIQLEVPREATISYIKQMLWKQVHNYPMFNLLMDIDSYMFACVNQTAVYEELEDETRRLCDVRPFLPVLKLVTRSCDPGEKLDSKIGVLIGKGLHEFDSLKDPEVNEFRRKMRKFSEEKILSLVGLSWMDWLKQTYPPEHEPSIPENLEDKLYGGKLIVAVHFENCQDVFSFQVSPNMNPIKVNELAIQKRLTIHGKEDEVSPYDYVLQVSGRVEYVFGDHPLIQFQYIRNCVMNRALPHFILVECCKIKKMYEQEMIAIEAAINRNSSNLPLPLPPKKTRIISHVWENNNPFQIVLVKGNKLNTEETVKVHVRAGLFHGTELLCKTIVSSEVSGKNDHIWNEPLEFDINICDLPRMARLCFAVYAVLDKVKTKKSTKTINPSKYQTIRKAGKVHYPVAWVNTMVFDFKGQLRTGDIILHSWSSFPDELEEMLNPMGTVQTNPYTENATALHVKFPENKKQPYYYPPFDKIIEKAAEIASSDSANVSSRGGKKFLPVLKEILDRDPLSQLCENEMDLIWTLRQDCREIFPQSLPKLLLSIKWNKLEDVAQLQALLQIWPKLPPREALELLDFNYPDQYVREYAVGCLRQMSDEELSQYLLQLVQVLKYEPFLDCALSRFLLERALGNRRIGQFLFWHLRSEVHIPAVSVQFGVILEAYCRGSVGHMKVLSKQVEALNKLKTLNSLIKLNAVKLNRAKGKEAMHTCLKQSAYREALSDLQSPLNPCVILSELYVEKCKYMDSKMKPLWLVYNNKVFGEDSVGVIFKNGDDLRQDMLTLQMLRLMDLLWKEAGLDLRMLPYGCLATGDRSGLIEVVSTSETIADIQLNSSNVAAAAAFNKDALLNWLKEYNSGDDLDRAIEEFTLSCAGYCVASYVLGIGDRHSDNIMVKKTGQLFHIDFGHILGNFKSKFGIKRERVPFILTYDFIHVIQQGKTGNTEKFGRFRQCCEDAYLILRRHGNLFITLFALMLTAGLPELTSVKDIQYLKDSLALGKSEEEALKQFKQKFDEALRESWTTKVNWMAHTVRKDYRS
T1 sequence (P27986 whole entry partner, species assumed): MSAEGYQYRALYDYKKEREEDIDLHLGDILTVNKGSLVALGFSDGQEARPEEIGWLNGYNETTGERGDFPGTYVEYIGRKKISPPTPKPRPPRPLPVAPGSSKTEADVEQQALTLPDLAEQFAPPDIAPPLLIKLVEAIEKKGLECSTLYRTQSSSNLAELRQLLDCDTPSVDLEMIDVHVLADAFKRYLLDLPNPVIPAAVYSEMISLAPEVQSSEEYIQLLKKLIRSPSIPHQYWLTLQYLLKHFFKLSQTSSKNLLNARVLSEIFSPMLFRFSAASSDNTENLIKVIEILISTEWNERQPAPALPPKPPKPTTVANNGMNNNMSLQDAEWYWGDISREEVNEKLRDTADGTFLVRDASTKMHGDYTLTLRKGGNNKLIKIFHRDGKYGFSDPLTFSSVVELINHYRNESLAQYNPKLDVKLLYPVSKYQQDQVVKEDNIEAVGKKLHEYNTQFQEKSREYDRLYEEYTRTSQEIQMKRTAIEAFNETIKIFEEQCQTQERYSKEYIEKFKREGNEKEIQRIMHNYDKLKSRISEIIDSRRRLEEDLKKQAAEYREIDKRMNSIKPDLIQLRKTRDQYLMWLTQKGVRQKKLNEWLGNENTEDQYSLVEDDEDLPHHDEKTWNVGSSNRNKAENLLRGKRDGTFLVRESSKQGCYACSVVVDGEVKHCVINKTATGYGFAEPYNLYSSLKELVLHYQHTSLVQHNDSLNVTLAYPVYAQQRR
T2 sequence (O00329 whole entry, species assumed): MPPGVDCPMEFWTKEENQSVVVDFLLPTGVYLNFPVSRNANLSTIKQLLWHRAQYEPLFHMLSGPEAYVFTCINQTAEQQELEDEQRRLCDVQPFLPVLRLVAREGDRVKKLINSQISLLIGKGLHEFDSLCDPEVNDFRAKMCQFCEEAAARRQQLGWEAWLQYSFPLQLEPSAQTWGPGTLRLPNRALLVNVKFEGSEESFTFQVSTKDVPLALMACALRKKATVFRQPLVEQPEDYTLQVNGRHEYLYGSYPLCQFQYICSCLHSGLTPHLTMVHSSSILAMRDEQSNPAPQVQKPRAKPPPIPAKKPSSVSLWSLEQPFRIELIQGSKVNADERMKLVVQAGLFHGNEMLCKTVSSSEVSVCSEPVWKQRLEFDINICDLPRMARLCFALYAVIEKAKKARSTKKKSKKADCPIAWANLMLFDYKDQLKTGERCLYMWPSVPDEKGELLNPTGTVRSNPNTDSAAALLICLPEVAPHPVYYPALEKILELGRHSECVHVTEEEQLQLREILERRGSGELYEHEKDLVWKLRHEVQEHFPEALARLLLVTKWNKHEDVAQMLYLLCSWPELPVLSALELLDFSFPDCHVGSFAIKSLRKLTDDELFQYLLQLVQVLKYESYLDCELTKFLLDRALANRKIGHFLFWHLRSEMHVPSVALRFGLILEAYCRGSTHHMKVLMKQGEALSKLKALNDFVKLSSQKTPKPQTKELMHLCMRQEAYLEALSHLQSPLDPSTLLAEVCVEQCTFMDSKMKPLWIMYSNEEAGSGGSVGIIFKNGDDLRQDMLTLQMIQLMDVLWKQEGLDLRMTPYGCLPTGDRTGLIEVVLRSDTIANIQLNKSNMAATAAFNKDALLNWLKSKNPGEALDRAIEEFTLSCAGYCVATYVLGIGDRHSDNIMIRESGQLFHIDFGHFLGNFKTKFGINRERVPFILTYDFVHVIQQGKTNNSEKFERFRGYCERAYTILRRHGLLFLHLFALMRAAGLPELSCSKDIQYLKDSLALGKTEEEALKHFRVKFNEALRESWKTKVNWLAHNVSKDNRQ
T2 sequence (P27986 whole entry partner, species assumed): as the sequence (P27986 whole entry partner, species assumed) above

Row | IC50 [1] | α/β ratio [1] | IC50 [2] | α/δ ratio [2] | β/δ ratio [2] | γ/δ ratio [2] | IC50 [3] | Structure (SMILES)
1 | 0.1 to 0.2 µM | D’ | ≤ 0.1 µM | A’ | C’ | A’ | > 0.5 µM | CC(C)(Cc1ccccc1F)Nc1nc(N2CCOCC2)nc(-n2c(C(F)F)nc3ccccc32)n1 [Compound A15, 4-(2-(difluoromethyl)-1H-benzo[d]imidazol-1-yl)-N-(1-(2-fluorophenyl)-2-methylpropan-2-yl)-6-morpholino-1,3,5-triazin-2-amine]
2 | ≤ 0.1 µM | A’ | ≤ 0.1 µM | A’ | D’ | C’ | > 0.5 µM | CC(C)(Cc1ccccc1Cl)Nc1nc(N2CCOCC2)nc(-n2c(C(F)F)nc3ccccc32)n1 [Compound A16, 4-(2-(difluoromethyl)-1H-benzo[d]imidazol-1-yl)-N-(1-(2-chlorophenyl)-2-methylpropan-2-yl)-6-morpholino-1,3,5-triazin-2-amine]
3 | 0.1 to 0.2 µM | C’ | ≤ 0.1 µM | A’ | C’ | A’ | > 0.5 µM | CC(C)(Cc1ccc(F)cc1)Nc1nc(N2CCOCC2)nc(-n2c(C(F)F)nc3ccccc32)n1 [Compound A22, 4-(2-(difluoromethyl)-1H-benzo[d]imidazol-1-yl)-N-(1-(4-fluorophenyl)-2-methylpropan-2-yl)-6-morpholino-1,3,5-triazin-2-amine]
4 | 0.2 to 0.5 µM | B’ | ≤ 0.1 µM | A’ | A’ | A’ | > 0.5 µM | CN1CCC(c2ccccc2CC(C)(C)Nc2nc(N3CCOCC3)nc(-n3c(C(F)F)nc4ccccc43)n2)CC1 [Compound A35, 4-(2-(difluoromethyl)-1H-benzo[d]imidazol-1-yl)-N-(2-methyl-1-(2-(1-methylpiperidin-4-yl)phenyl)propan-2-yl)-6-morpholino-1,3,5-triazin-2-amine]
5 | > 0.5 µM | D’ | ≤ 0.1 µM | A’ | A’ | A’ | > 0.5 µM | COc1cc(-c2ccccc2CC(C)(C)Nc2nc(N3CCOCC3)nc(-n3c(C(F)F)nc4ccccc43)n2)ccn1 [Compound A41, 4-(2-(difluoromethyl)-1H-benzo[d]imidazol-1-yl)-N-(1-(2-(2-methoxypyridin-4-yl)phenyl)-2-methylpropan-2-yl)-6-morpholino-1,3,5-triazin-2-amine]

Further lines, the molecule ahead of its results:

Row | Structure (SMILES) | IC50 [1] | α/β ratio [1] | IC50 [2] | α/δ ratio [2] | β/δ ratio [2] | γ/δ ratio [2] | IC50 [3]
6 | CC(C)(Cc1ccccc1)Nc1nc(N2CCOCC2)nc(-n2c(C(F)F)nc3ccccc32)n1 [Compound A14, 4-(2-(difluoromethyl)-1H-benzo[d]imidazol-1-yl)-N-(2-methyl-1-phenylpropan-2-yl)-6-morpholino-1,3,5-triazin-2-amine] | ≤ 0.1 µM | A’ | ≤ 0.1 µM | A’ | D’ | A’ | > 0.5 µM
7 | Cc1ccccc1CC(C)(C)Nc1nc(N2CCOCC2)nc(-n2c(C(F)F)nc3ccccc32)n1 [Compound A18, 4-(2-(difluoromethyl)-1H-benzo[d]imidazol-1-yl)-N-(2-methyl-1-(o-tolyl)propan-2-yl)-6-morpholino-1,3,5-triazin-2-amine] | ≤ 0.1 µM | A’ | ≤ 0.1 µM | A’ | D’ | B’ | > 0.5 µM
8 | COc1ccccc1CC(C)(C)Nc1nc(N2CCOCC2)nc(-n2c(C(F)F)nc3ccccc32)n1 [Compound A19, 4-(2-(difluoromethyl)-1H-benzo[d]imidazol-1-yl)-N-(1-(2-methoxyphenyl)-2-methylpropan-2-yl)-6-morpholino-1,3,5-triazin-2-amine] | 0.2 to 0.5 µM | D’ | ≤ 0.1 µM | B’ | B’ | B’ | > 0.5 µM
9 | COc1cccc(CC(C)(C)Nc2nc(N3CCOCC3)nc(-n3c(C(F)F)nc4ccccc43)n2)c1 [Compound A21, 4-(2-(difluoromethyl)-1H-benzo[d]imidazol-1-yl)-N-(1-(3-methoxyphenyl)-2-methylpropan-2-yl)-6-morpholino-1,3,5-triazin-2-amine] | 0.1 to 0.2 µM | C’ | ≤ 0.1 µM | A’ | B’ | A’ | > 0.5 µM
10 | CC(C)(Cc1cccc2ccccc12)Nc1nc(N2CCOCC2)nc(-n2c(C(F)F)nc3ccccc32)n1 [Compound A27, 4-(2-(difluoromethyl)-1H-benzo[d]imidazol-1-yl)-N-(2-methyl-1-(naphthalen-1-yl)propan-2-yl)-6-morpholino-1,3,5-triazin-2-amine] | ≤ 0.1 µM | B’ | ≤ 0.1 µM | A’ | D’ | D’ | > 0.5 µM
11 | CC(C)(Cc1ccccc1-c1ccncc1)Nc1nc(N2CCOCC2)nc(-n2c(C(F)F)nc3ccccc32)n1 [Compound A33, 4-(2-(difluoromethyl)-1H-benzo[d]imidazol-1-yl)-N-(2-methyl-1-(2-(pyridin-4-yl)phenyl)propan-2-yl)-6-morpholino-1,3,5-triazin-2-amine] | ≤ 0.1 µM | B’ | ≤ 0.1 µM | A’ | D’ | A’ | > 0.5 µM
12 | CC(C)(Cc1cccc(F)c1)Nc1nc(N2CCOCC2)nc(-n2c(C(F)F)nc3ccccc32)n1 [Compound A39, 4-(2-(difluoromethyl)-1H-benzo[d]imidazol-1-yl)-N-(1-(3-fluorophenyl)-2-methylpropan-2-yl)-6-morpholino-1,3,5-triazin-2-amine] | ≤ 0.1 µM | A’ | ≤ 0.1 µM | A’ | D’ | B’ | > 0.5 µM
13 | CC(C)(Cc1ccccc1-c1cccnc1)Nc1nc(N2CCOCC2)nc(-n2c(C(F)F)nc3ccccc32)n1 [Compound A40, 4-(2-(difluoromethyl)-1H-benzo[d]imidazol-1-yl)-N-(2-methyl-1-(2-(pyridin-3-yl)phenyl)propan-2-yl)-6-morpholino-1,3,5-triazin-2-amine] | ≤ 0.1 µM | B’ | ≤ 0.1 µM | A’ | D’ | A’ | > 0.5 µM
14 | Cc1cc(-c2ccccc2CC(C)(C)Nc2nc(N3CCOCC3)nc(-n3c(C(F)F)nc4ccccc43)n2)ccn1 [Compound A43, 4-(2-(difluoromethyl)-1H-benzo[d]imidazol-1-yl)-N-(2-methyl-1-(2-(2-methylpyridin-4-yl)phenyl)propan-2-yl)-6-morpholino-1,3,5-triazin-2-amine] | ≤ 0.1 µM | A’ | ≤ 0.1 µM | A’ | D’ | A’ | > 0.5 µM
15 | CC(C)(Cc1ccccc1-c1cn[nH]c1)Nc1nc(N2CCOCC2)nc(-n2c(C(F)F)nc3ccccc32)n1 [Compound A44, 4-(2-(difluoromethyl)-1H-benzo[d]imidazol-1-yl)-N-(1-(2-(1H-pyrazol-4-yl)phenyl)-2-methylpropan-2-yl)-6-morpholino-1,3,5-triazin-2-amine] | ≤ 0.1 µM | A’ | ≤ 0.1 µM | A’ | D’ | A’ | > 0.5 µM
